The values below come from patent US20230257429A1, “PEPTIDE ADJUVANT FOR ITS THERAPEUTIC APPLICATIONS IN VIRAL AND TUMOUR VACCINE DEVELOPMENT AND CANCER IMMUNOTHERAPY AND AUTOIMMUNE DISEASE DIAGNOSIS AND TREATMENTS” (National University of Singapore, priority 2020, published 2023).

Assay [1] has as its system PBMC. Put plainly: PBMC activation, TNFα and IL-1β ELISA. In kind it is cell-based, human. The note with it: for adjuvant (alarmin) activity compared with NCL-P2+G / adjuvant (alarmin) activity compared with NCL-P2: PBMC stimulated 24 hr; for adjuvant (alarmin) activity compared with NCL-P2+G: TNFα by ELISA; for adjuvant (alarmin) activity compared with NCL-P2: TNFα in media; for TNFα induction from PBMC by known CPPs / TNFα production from PBMC: 24 hr; for TNFα induction from PBMC by known CPPs: ELISA; for TNFα production from PBMC: recombinant protein coated on plates. As to the method:
Buffy coat fractions were obtained from healthy blood donors at the Singapore Health Sciences Authority, with Institutional ethics approval, and PBMC were isolated using Ficoll-Paque (GE Healthcare). To isolate monocytes, PBMC were re-suspended to 1×10^7 cells/ml in the RPMI medium contained 5% (v/v) BCS and incubated for 1 hr in T75 flasks (20 ml/flask). Monocytes that adhered were harvested. To culture macrophages and DC [Cao, W., et al., Blood 107: 2777-2785, (2006), incorporated herein by reference], monocytes were resuspended to 1×10^6 cells/ml and cultured in 6-well plates (2 ml/well). Macrophages were cultured by adding M-CSF to 20 ng/ml and DC were cultured with 20 ng/ml GM-CSF and 40 ng/ml IL-4. M-CSF, GM-CSF and IL-4 were obtained from R&D Systems (Mineapolis, Minn.). Cells were cultured for 6 days with half of the media being replenished every two days.
Purified proteins in PBS (30 μg/ml) were coated in triplicates in 96-well plates (50 μl/well) for 12 hr and PBMC (3×10^6 cells/ml), monocytes (1×10^6 cells/ml), macrophages (0.5×10^6 cells/ml) or DC (0.5×10^6 cells/ml) were re-suspended in macrophage serum-free medium containing penicillin and streptomycin and cultured for 24 hr in these plates at 100 μl/well. Where TLR ligands were used to stimulate these cells, they were added to the media: LPS (500 ng/ml for DC and macrophages and 10 ng/ml for PMBC and monocytes, InvivoGen), flagellin (1 μg/ml, InvivoGen), lipoteichic acid (LTA, 10 μg/ml). Cell activation was determined by measuring TNFα and IL-1β in the culture media using ELISA kits (Invitrogen).
(In an ELISA, binding on a coated surface is turned into a signal by an enzyme label.)

In assay [2] the test system is PBMC. The experiment in a line: Peptide binding to and penetration of PBMC, flow cytometry. In kind it is cell-based, human. The conditions noted are these: for CPP activity compared with P2+G / CPP activity compared with NCL-P2: PBMC; for CPP activity compared with P2+G: 1 hr at 4° C. and 37° C., MFI; for CPP activity compared with NCL-P2: peptide 200 μg/ml; for CPP activity compared with NCL-P2 / intracellular pool / cell penetration (CPP activity) in PBMC: 1 hr at 4° C.; for intracellular pool / cell penetration (CPP activity) in PBMC: fixed/permeabilized, streptavidin-AF488. As to the method:
PBMC re-suspended in 100 μl macrophage serum free media (3×10^6/ml) were incubated with different peptides (200 μg/ml). PBMC (100 μl) were incubated with the peptides for 1 hr at 37° C. or 4° C. Cells were washed twice in 2% FBS/PBS and incubated with streptavidin-AF488 and Zombie (NIR) Fixable viability stain-APC-Cy7 for 30 min at 4° C. Cells were then fixed with 1% PFA for 30 min at room temperature and analysed using the Fortessa analyser (BD). In some experiments, PBMC were, after incubation with peptides, incubated with Zombie (NIR) Fixable viability stain (APC-Cy7) for 30 min at 4° C. Cells were then fixed and permeabilized with BD CYTOFIX/CYTOPERM™ Kit for 20 min at 4° C., and then incubated with streptavidin-AF488 for 30 min at 4° C. In some experiments, PBMC were, after incubation with the peptides, stained with fluorescent mouse antibodies specific for monocytes (CD14/BV711), T cells (CD3/PerCP-Cy5-5) and B cells (CD19/Pacific blue). Cells were then stained with Zombie (NIR) Fixable viability stain-APC-Cy7 and streptavin-AF488, with or without membrane permeabilization. In these experiments, monocytes, T cells and B cells were separately gated to detect surface peptide binding and intracellular peptide penetration.
(In general: Flow cytometry measures light scatter and fluorescence of single cells or particles in a stream.)

The target in another assay is TLR2 (Homo sapiens, UniProt O60603). The experiment in a line: TLR2 binding assay (ELISA plate). The arrangement: purchased R&D Systems. The conditions noted are these: for soluble protein binding to coated TLR2: TLR2 coated 2 μg/ml, protein 0-20 μg/ml, anti-HA detection; for TLR2 binding at the highest concentration tested: peptide 200 μg/ml.

“Also recorded” adds a separate entry of the source.

TLR2, sequence (O60603 21-590 limits assumed): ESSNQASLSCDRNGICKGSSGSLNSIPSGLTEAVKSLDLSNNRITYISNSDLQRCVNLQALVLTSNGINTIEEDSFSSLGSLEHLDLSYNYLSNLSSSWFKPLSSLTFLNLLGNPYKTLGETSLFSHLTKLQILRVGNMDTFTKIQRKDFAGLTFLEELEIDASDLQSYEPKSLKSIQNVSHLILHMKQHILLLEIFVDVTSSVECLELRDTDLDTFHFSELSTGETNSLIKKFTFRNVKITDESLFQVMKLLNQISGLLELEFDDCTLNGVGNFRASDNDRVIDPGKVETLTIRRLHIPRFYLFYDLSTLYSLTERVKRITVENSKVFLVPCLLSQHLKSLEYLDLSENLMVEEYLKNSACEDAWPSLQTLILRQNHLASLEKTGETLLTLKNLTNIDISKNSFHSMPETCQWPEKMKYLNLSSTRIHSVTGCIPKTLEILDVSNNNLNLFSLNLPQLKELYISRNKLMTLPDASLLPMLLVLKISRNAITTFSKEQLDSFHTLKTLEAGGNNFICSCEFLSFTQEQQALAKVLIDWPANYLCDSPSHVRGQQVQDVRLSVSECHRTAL

Turning to “GGFGARGGARGARGGFGARGARGGFGARGGFRGARGA (NCL-P2+G(G/A))”, the “adjuvant (alarmin) activity compared with NCL-P2+G” value (“adjuvant … compared with NCL-P2+G” below) in the assay with PBMC [1] is on record as “lost the alarmin activity”. In the assay with PBMC [2], the “CPP activity compared with P2+G” value was “completely lost the CPP activity”.

Take “GGFGGKGGGKGGKGGFGGKGKGGFGGKGGFKGGKGG (NCL-P2R/K)”: the entries for the “adjuvant (alarmin) activity compared with NCL-P2” value in the assay with PBMC [1], with PBMC [1] (listed as R/K mutant of NCL-P2) and in the assay with PBMC [1] (listed as SEQ ID NO: 20) were “lost CPP as well as alarmin activity”, “lost its adjuvant activity” and “completely abolished its adjuvant activity”, respectively. For the same molecule, in the assay with PBMC [2], the “CPP activity compared with NCL-P2” value is “lost CPP as well as alarmin activity”. In the assay on PBMC [2] (compared with NCL-P2), the “PBMC penetration at 37° C. or 4° C.” value was “no longer penetrates PBMC”.

In the case of “GGFGGRGGGRGGRGGFGGRGGRGGFGGRGGFGGRGGRGG (NCL-P2+3G)”, in the assay with PBMC [1], the “adjuvant … compared with NCL-P2+G” value was “no further improvement in adjuvant activity and instead it slightly reduced the high adjuvant activity”. For the same molecule, the “adjuvant (alarmin) activity compared with NCL-P2” value with PBMC [1] is “significantly higher alarmin activity”. The “CPP activity compared with NCL-P2” value in the assay with PBMC [2] is given as “slightly higher CPP activity”; in the assay on PBMC [2] (listed as P2+3G) it was “slightly increased their CPP activities”.

For “GGFGGRGGRGGFGGRGGRGGFGGRGGRGGFGGRGGRGG (NCL-P2+2G)”, the “adjuvant (alarmin) activity compared with NCL-P2” value with PBMC [1] is recorded as “diminished rather than increased adjuvant activity; also recorded: slightly reduced alarmin activity”.

On to “GGFGPRGGPRGPRGGFGPRGPRGGFGPRGGFRGPRGP (NCL-P2+G(G/P))”, for which, in the assay with PBMC [1], the “adjuvant … compared with NCL-P2+G” value is “lost the alarmin activity”. Further, the “CPP activity compared with P2+G” value in the assay on PBMC [2] is on record as “completely lost the CPP activity”.

As for “GGIGGRGGGRGGRGGIGGRGGRGGIGGRGGIRGGRGG (NCL-P2+G(F/I))”, the “adjuvant … compared with NCL-P2+G” value in the assay on PBMC [1] was “retained the alarmin activity”. Besides, in the assay on PBMC [2], the “CPP activity compared with P2+G” value is “acquired higher CPP activities” and the “CPP activity compared with NCL-P2” value is given as “slightly increased their CPP activities”.

In the case of “GGLGGRGGGRGGRGGLGGRGGRGGLGGRGGLRGGRGG (GGLGRRGGGRGGRGGLGGRGGRGGLGGRGGLRGGRGG; NCL-P2+G(F/L))”, in the assay with PBMC [1], the “adjuvant … compared with NCL-P2+G” value is on record as “stronger alarmin activity than P2+G; also recorded: retained the alarmin activity”. In addition, in the assay with PBMC [2], the “CPP activity compared with P2+G” value is “acquired higher CPP activities” and the “CPP activity compared with NCL-P2” value is on record as “slightly increased their CPP activities”.

For the molecule “GGRGGRGGGRGGRGGRGGRGRGGRGGRGGRRGGRGG (NCL-P2F/R)”, the figures for the “adjuvant (alarmin) activity compared with NCL-P2” value in the assay with PBMC [1], in the assay on PBMC [1] (listed as P2F/R) and in the assay with PBMC [1] (listed as SEQ ID NO: 21) were “losing significant alarmin activity; also recorded: no significant alarmin activity”, “reduced alarmin activity; also recorded: diminished alarmin activities” and “substantially reduced its adjuvant activity”, respectively. Besides, the “increase in CPP activity compared with NCL-P2” value with PBMC [2] is “approx. 8 fold”. For the same molecule, the “CPP activity compared with NCL-P2” value in the assay with PBMC [2] was “gained substantial CPP activity; also recorded: have cell-penetrating activity”; in the assay with PBMC [2] (listed as P2F/R) it was “strong CPP”.

As for “GGWGGRGGGRGGRGGWGGRGRGGWGGRGGWRGGRGG (NCL-P2F/W)”, the “adjuvant (alarmin) activity compared with NCL-P2” value with PBMC [1] is on record as “lost the alarmin activity; also recorded: no significant alarmin activity”; with PBMC [1] (listed as SEQ ID NO: 24), “markedly diminished its adjuvant activity”. Further, the “CPP activity compared with NCL-P2” value with PBMC [2] was “retained the CPP activity; also recorded: have cell-penetrating activity”.

Turning to “GGYGGRGGGRGGRGGYGGRGRGGYGGRGGYRGGRGG (NCL-P2F/Y)”, the “adjuvant (alarmin) activity compared with NCL-P2” value in the assay with PBMC [1] is on record as “alarmin activity was diminished; also recorded: no significant alarmin activity”; in the assay with PBMC [1] (listed as SEQ ID NO: 23), “markedly diminished its adjuvant activity”. Moreover, the “CPP activity compared with NCL-P2” value in the assay on PBMC [2] is given as “gained significant CPP activity; also recorded: have cell-penetrating activity”.

As to “GWTLNSAGYLLGKINLKALAALAKKIL [CPP6, reference compound]”, in the assay on PBMC [1], the “TNFα induction from PBMC by known CPPs” value is listed as “No significant TNFα”.

Turning to “MVTVLFRRLRIRRACGPPRVRV (CPP7) [reference compound]”, the “TNFα induction from PBMC by known CPPs” value with PBMC [1] was “No significant TNFα”.

As for “NCL(522)-HA: NCL-HA C-terminal deletion mutant of 522 residues which lacks the GAR/RGG region”, the “soluble protein binding to coated TLR2” value in the assay with TLR2 was “not observed”.

For the molecule “NCL(649)-HA: NCL-HA C-terminal deletion mutant which lacks the GAR/RGG region”, the “soluble protein binding to coated TLR2” value with TLR2 is “not observed”. The “His-tagged TLR2 binding to coated protein” value with TLR2 (protein coated 10 μg/ml, TLR2 0.375-6.0 μg/ml) is reported as “no binding”.

In the case of “NCL-P4: peptide representing the N-terminal half of NCL-P6 (RGGFGGRGGG; NCL-P4)”, the “intracellular pool / cell penetration (CPP activity) in PBMC” value (shortened to “intracellular pool / cell penetration”) with PBMC [2] is “all lacked cell penetration”. Moreover, the “TLR2 binding at the highest concentration tested” value with TLR2 was “no TLR2 binding”.

Regarding “NCL-P5: peptide representing the C-terminal half of NCL-P6 (RGGRGGFGGRG; NCL-P5)”, the “intracellular pool / cell penetration” value in the assay on PBMC [2] is “all lacked cell penetration”. In the assay with TLR2, the “TLR2 binding at the highest concentration tested” value is “low level of TLR2 binding”.

Consider “NCL-P7: short peptide corresponding to the non-repetitive C-terminal end of the 48-residue GAR/RGG region (FRGGRGG; NCL-P7)”, for which, in the assay with PBMC [2], the “intracellular pool / cell penetration” value was “all lacked cell penetration”.

For the molecule “RRRRNRTRRNRRRVRRRRRNRTRRNRRRVR (2xCPP4) [2×CPP4, reference compound]”, the “alarmin activity compared with CPP4” value with PBMC [1] (PBMC 24 hr, TNFα ELISA) is “Little increase in alarmin activity”.

B1: GAR1-HA: recombinant GAR1 with a C-terminal HA tag (protein, UniProt Q9NY12 1-217, looked up)
H/ACA ribonucleoprotein …: MSFRGGGRGGFNRGGGGGGFNRGGSSNHFRGGGGGGGGGNFRGGGRGGFGRGGGRGGFNKGQDQGPPERVVLLGEFLHPCEDDIVCKCTTDENKVPYFNAPVYLENKEQIGKVDEIFGQLRDFYFSVKLSENMKASSFKKLQKFYIDPYKLLPLQRFLPRPPGEKGPPRGGGRGGRGGGRGGGGRGGGRGGGFRGGRGGGGGGFRGGRGGGFRGRGH
modifications: C-terminal HA tag
On to B1, for which the “TNFα production from PBMC” value with PBMC [1] is “indeed activated PBMC”.

B2: FBRL: recombinant fibrillarin with C-terminal HA tag (protein)
chain: MKPGFSPRGGGFGGRGGFGDRGGRGGRGGFGGGRGRGGGFRGRGRGGGGGGGGGGGGGRGGGGFHSGGNRGRGRGGKRGNQSGKNVMVEPHRHEGVFICRGKEDALVTKNLVPGESVYGEKRVSISEGDDKIEYRAWNPFRSKLAAAILGGVDQIHIKPGAKVLYLGAASGTTVSHVSDIVGPDGLVYAVEFSHRSGRDLINLAKKRTNIIPVIEDARHPHKYRMLIAMVDVIFADVAQPDQTRIVALNAHTFLRNGGHFVISIKANCIDSTASAEAVFASEVKKMQQENMKPQEQLTLEPYERDHAVVVGVYRPPPKVKN
modifications: C-terminal HA tag; FBRL
For B2, the “TNFα production from PBMC” value with PBMC [1] is “strongly induced TNFα production”.
